What all share (assay type): binding
For assay [1], the target named is T1, JAK2(JH1domain-catalytic) (Homo sapiens, UniProt O60674).
T1 construct: JAK2 (JH1domain-catalytic); purchased Reaction Biology Co
In words: Enzyme inhibitory activity (Kd), Reaction Biology Co.

A further assay addresses T2, CDK11 (Homo sapiens, UniProt Q9BWU1).
T2 construct: purchased Reaction Biology Co
The description is as above.

For a further assay, the target named is T3, LOK (Homo sapiens, UniProt O94804).
T3 construct: purchased Reaction Biology Co
Described as above.

For a further assay, the target named is T4, CSF1R (Homo sapiens, UniProt P07333).
T4 construct: purchased Reaction Biology Co
Described as above.

The target of assay [2] is T5, scanMAX Kinase assay panel (Homo sapiens, UniProt P29323).
T5 construct: purchased DiscoverX
T5 sequence (P29323 19-1055): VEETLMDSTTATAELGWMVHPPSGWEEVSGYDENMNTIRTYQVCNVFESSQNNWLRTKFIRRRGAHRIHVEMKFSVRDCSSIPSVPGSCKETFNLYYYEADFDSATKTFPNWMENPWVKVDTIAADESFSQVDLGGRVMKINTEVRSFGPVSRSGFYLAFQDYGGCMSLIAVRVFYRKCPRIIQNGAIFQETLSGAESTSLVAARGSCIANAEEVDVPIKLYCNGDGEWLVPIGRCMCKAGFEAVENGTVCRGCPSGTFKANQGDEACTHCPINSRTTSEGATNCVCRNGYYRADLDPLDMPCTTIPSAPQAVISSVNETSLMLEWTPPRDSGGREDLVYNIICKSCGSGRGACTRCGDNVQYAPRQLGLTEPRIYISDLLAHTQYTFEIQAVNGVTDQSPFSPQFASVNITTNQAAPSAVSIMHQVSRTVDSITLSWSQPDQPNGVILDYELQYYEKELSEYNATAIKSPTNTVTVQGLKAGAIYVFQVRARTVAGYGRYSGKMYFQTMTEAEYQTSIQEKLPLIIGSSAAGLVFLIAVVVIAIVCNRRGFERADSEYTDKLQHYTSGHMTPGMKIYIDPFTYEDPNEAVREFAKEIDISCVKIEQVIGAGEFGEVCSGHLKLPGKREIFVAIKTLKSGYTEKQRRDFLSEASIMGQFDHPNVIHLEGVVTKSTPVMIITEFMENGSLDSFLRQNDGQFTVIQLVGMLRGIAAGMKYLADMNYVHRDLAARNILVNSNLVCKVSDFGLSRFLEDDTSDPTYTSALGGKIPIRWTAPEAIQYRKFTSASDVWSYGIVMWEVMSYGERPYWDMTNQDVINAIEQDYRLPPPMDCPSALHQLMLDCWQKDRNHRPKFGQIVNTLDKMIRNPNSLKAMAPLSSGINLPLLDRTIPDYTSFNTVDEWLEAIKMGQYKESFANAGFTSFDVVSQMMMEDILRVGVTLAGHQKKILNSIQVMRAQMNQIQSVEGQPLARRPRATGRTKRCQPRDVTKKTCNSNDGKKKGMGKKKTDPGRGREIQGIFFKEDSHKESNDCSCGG
The experiment in a line: Kinase selectivity, scanMAX Kinase assay panel (DiscoverX), % control at 1 uM. The note with it: EPHB2; 1 uM; read-out: Percent Control (%). In a few lines:
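Activity was called for kinases showing % control under 35, calculated from compound signal relative to positive and negative controls. Each compound screened at 1 uM against the DiscoverX scanMAX panel.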

Another assay has as its target T6, EPHB6 (Homo sapiens, UniProt O15197).
T6 construct: purchased Reaction Biology Co
The experiment in a line: Enzyme inhibitory activity (Kd), Reaction Biology Co.

For a further assay, the target named is T7, FGR (Homo sapiens, UniProt P09769).
T7 construct: purchased Reaction Biology Co
Described as above.

Another assay has as its target T8, YES (Homo sapiens, UniProt P07947).
T8 construct: purchased Reaction Biology Co
The description is as above.

A further assay has as its target T9, HCK (Homo sapiens, UniProt P08631).
T9 construct: purchased Reaction Biology Co
Described as above.

The target in another assay is T10, BLK (Homo sapiens, UniProt P51451).
T10 construct: purchased Reaction Biology Co
Described as above.

The target of another assay is T11, LYN (Homo sapiens, UniProt P07948).
T11 construct: purchased Reaction Biology Co
Described as above.

In the next assay the target is T12, SRC (Homo sapiens, UniProt P12931).
T12 construct: purchased Reaction Biology Co
The description is as above.

The target in a further assay is T13, LCK (Homo sapiens, UniProt P06239).
T13 construct: purchased Reaction Biology Co
The description is as above.

A further assay deals with T14, FYN (Homo sapiens, UniProt P06241).
T14 construct: purchased Reaction Biology Co
The assay is described as above.

T3 sequence (O94804 whole entry): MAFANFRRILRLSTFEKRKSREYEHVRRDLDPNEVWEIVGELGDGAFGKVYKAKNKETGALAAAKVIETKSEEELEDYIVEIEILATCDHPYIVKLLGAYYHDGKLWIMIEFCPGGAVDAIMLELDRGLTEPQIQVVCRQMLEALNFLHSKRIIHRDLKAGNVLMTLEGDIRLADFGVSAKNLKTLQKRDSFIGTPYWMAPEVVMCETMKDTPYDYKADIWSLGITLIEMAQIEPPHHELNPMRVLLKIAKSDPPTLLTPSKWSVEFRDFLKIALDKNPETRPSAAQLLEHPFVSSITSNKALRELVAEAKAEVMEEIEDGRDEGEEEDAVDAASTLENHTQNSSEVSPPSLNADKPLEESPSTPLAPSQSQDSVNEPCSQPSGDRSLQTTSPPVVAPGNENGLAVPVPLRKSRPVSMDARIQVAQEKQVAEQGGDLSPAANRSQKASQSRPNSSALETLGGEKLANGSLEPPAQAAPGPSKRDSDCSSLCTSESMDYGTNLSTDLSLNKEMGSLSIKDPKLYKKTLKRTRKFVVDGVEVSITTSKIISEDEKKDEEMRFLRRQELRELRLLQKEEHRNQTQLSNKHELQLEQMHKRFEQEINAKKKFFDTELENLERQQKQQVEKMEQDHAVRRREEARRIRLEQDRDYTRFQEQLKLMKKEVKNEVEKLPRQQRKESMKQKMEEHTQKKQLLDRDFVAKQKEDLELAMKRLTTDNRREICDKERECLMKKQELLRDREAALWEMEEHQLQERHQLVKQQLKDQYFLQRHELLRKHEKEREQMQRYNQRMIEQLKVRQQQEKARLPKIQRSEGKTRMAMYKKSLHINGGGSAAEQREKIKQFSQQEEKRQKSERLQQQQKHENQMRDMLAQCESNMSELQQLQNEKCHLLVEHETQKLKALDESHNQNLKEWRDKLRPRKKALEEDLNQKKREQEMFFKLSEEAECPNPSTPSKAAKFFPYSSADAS
T4 sequence (P07333 20-972): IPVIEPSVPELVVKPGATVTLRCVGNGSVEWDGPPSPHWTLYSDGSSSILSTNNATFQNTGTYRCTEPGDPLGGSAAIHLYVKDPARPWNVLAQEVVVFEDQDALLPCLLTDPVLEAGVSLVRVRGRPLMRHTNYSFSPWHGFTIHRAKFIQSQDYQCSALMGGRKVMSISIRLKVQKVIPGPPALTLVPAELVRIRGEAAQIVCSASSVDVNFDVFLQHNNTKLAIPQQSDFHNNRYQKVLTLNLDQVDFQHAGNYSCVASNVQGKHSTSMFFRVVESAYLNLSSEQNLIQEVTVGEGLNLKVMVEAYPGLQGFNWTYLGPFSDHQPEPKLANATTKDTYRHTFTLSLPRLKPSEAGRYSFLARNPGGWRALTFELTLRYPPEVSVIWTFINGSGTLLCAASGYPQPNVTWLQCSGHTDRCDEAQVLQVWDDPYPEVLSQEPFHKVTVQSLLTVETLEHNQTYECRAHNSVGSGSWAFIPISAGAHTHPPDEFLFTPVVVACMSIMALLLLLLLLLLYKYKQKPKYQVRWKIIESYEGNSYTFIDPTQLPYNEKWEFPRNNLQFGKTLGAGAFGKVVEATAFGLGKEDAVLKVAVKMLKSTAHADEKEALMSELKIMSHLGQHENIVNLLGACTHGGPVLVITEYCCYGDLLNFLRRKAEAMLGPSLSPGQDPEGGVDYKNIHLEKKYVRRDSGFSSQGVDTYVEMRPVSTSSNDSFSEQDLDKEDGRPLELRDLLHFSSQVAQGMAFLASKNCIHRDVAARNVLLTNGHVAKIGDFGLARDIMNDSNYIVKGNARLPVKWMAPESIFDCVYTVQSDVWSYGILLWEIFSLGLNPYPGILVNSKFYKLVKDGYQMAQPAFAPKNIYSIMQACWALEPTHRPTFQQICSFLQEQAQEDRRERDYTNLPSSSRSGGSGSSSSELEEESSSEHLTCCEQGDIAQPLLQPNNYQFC
T1 sequence (O60674 849-1124 limits assumed): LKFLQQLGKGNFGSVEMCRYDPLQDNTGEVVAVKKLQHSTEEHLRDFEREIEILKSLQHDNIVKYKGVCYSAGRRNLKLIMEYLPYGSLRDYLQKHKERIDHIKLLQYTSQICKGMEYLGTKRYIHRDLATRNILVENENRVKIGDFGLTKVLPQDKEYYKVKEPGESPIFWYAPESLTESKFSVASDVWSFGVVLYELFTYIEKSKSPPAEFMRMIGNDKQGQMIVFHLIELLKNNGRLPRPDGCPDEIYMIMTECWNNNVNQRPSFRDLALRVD
T7 sequence (P09769 whole entry): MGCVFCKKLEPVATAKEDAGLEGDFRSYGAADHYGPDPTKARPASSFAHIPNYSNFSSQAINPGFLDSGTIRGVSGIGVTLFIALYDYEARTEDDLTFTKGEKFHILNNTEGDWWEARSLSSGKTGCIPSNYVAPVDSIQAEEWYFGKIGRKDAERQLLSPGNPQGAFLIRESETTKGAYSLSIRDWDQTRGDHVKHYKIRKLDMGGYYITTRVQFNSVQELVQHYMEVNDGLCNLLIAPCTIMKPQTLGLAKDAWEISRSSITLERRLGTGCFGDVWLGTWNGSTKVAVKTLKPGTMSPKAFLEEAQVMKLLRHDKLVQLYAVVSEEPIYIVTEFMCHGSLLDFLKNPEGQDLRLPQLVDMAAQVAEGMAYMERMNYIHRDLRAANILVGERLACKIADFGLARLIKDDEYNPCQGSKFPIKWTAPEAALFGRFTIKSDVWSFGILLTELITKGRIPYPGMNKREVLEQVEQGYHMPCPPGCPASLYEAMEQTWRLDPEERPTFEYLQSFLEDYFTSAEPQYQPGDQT
T12 sequence (P12931 whole entry): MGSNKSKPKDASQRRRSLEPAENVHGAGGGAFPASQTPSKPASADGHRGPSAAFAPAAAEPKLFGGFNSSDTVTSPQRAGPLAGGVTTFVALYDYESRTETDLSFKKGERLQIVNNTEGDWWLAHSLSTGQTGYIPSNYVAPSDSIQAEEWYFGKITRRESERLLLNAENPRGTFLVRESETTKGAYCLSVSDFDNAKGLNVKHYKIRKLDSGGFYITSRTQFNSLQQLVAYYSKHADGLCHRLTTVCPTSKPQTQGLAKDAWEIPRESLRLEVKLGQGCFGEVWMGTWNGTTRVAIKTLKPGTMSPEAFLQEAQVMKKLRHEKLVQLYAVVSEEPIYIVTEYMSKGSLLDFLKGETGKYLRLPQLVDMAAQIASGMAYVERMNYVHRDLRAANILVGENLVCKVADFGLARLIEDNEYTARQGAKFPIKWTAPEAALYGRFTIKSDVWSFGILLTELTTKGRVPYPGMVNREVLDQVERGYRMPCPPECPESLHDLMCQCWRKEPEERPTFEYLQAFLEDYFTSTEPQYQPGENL
T11 sequence (P07948 whole entry): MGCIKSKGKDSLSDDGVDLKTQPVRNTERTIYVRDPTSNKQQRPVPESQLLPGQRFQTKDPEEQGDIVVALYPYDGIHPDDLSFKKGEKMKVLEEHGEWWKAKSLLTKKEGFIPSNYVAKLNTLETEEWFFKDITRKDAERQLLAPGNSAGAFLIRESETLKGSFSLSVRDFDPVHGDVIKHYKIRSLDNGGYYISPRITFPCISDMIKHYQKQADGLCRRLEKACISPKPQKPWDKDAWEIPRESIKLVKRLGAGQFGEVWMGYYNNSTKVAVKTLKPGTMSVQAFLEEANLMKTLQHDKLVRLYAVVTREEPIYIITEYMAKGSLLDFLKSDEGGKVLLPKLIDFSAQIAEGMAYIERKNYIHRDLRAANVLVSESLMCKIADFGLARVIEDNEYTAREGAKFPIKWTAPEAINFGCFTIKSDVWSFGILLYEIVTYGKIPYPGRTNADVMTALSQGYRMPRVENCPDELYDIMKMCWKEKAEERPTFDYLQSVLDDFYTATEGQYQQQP
T9 sequence (P08631 whole entry): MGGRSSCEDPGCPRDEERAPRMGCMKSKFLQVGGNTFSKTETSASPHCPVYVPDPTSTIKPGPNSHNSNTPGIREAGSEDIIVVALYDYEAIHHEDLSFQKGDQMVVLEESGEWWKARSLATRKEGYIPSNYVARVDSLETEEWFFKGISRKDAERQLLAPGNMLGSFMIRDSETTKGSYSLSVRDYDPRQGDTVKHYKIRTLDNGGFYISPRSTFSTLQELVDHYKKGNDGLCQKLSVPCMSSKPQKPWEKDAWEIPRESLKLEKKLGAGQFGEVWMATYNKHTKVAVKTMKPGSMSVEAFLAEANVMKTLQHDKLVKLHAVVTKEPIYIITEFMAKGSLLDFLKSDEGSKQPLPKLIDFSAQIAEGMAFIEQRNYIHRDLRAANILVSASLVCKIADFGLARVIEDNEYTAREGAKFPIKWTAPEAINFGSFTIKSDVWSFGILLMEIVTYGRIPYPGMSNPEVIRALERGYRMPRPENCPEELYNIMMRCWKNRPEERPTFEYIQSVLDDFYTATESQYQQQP
T2 sequence (Q9BWU1 whole entry): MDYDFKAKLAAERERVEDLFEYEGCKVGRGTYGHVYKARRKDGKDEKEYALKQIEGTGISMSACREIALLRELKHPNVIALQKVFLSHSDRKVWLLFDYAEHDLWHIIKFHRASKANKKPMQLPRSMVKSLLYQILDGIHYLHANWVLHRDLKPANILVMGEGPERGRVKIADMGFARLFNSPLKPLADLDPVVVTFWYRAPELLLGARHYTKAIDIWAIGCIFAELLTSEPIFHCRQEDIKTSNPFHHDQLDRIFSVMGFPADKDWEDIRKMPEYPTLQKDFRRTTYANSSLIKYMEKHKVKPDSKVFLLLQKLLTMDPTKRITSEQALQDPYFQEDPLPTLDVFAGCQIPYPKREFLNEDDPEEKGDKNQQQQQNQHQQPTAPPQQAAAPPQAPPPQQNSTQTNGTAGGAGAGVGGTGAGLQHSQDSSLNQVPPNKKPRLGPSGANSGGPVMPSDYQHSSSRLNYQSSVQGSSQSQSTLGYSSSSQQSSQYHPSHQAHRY

What is called Kd is the constant that tells how readily two partners part at equilibrium. Read a high Kd as lower affinity. As to `Cc1ccc(C(=O)Nc2ccc(CN3CCN(C)CC3)c(C(F)(F)F)c2)cc1C#Cc1cnc2c(Nc3cnn(C)c3)cccn12` [Example 1, 4-methyl-3-((8-((1-methyl-1H-pyrazol-4-yl)amino)imidazo[1,2-a]pyridin-3-yl)ethynyl)-N-(4-((4-methylpiperazin-1-yl)methyl)-3-(trifluoromethyl)phenyl)benzamide], the equilibrium dissociation constant (Kd) came to 220 nM in [1], 140 nM at CDK11, 7.3 nM on LOK and 34 nM at CSF1R. Moreover, the remaining binding at 1 µM in assay [2] came to 0%.

As to `Cc1ccc(NC(=O)C2(C(=O)Nc3ccc(F)cc3)CC2)cc1C#Cc1cnc2c(Nc3cnn(C(C)C)c3)cccn12` [Example 78], the Kd amounted to 15 nM at EPHB6, 37 nM on LOK and 440 nM on CSF1R. In assay [2], the remaining binding at 1 µM came out at 98%.

For the molecule `Cc1cn(-c2cc(NC(=O)c3ccc(C)c(C#Cc4cnc5c(Nc6cnn(C)c6)cccn45)c3)cc(C(F)(F)F)c2)cn1` [Example 12, 4-methyl-N-(3-(4-methyl-1H-imidazol-1-yl)-5-(trifluoromethyl)phenyl)-3-((8-((1-methyl-1H-pyrazol-4-yl)amino)imidazo[1,2-a]pyridin-3-yl)ethynyl)benzamide], the remaining binding at 1 µM in assay [2] is 27%.

As for `CCN1CCN(Cc2ccc(NC(=O)c3ccc(C)c(C#Cc4cnc5c(Nc6cnn(C)c6)cccn45)c3)cc2C(F)(F)F)CC1` [Example 8, N-(4-((4-ethylpiperazin-1-yl)methyl)-3-(trifluoromethyl)phenyl)-4-methyl-3-((8-((1-methyl-1H-pyrazol-4-yl)amino)imidazo[1,2-a]pyridin-3-yl)ethynyl)benzamide], the Kd was determined as 270 nM in assay [1]; 13 nM at FGR; 17 nM on YES; 7.7 nM on HCK; 5 nM on BLK; 15 nM on LYN. Also, the Kd turned out to be 10 nM on SRC, 6.4 nM at LCK and 52 nM on FYN.

For the origin of these results see patent US10870647B2, “Imidazopyridine derivative, method for preparing same, and pharmaceutical composition containing same as active ingredient for preventing or treating cancer” (DAEGU-GYEONGBUK MEDICAL INNOVATION FOUNDATION, priority 2016, dated 2020).
